# Calls of active or inactive are those of the source. No cut-off for these calls is given here.
# Assays:
# [1] = test system: MDA-MB-231; assay: Antiproliferative activity against human MDA-MB-231 cells assessed as cell growth inhibition incubated for 4 hrs by MTT assay; type: functional, cell-based; settings: MDA-MB-231, 4 h
# [2] = test system: HT-29; assay: Antiproliferative activity against human HT-29 cells assessed as cell growth inhibition incubated for 4 hrs by MTT assay; type: functional, cell-based; settings: HT-29, 4 h
# [3] = test system: A549; assay: Antiproliferative activity against human A549 cells assessed as cell growth inhibition incubated for 4 hrs by MTT assay; type: functional, cell-based; settings: A549, 4 h
# [4] = Selectivity index, ratio of IC50 for antiproliferative activity against human HT-29 cells to IC50 for antiproliferative activity against human MDA-MB-231 cells; type: functional
# [5] = Selectivity index, ratio of IC50 for antiproliferative activity against human A549 cells to IC50 for antiproliferative activity against human MDA-MB-231 cells; type: functional
# [6] = test system: MDA-MB-231; assay: Inhibition of colony formation in human MDA-MB-231 cells upto 5 uM for 9 days by crystal violet staining based assay; type: functional, cell-based; settings: time 9.0 day
SMILES,IC50 [1] [µM],IC50 [2] [µM],IC50 [3] [µM],Ratio IC50 [4],Ratio IC50 [5],inhibition [6]
C[C@]12CC[C@H]3[C@@H](CCC4=CC(=O)C=C[C@@]43C)[C@@H]1CC[C@@H]2C(=O)NCCNC(=O)/C=C/c1cccc([N+](=O)[O-])c1,13.7,> 40,34.2,>2.9,2.5,–
C[C@]12CC[C@H]3[C@@H](CCC4=CC(=O)C=C[C@@]43C)[C@@H]1CC[C@@H]2C(=O)NCCNC(=O)/C=C/c1ccc(C(F)(F)F)cc1,12.5,> 40,38.1,>3.2,3.2,–
COc1cc(/C=C/C(=O)NCCNC(=O)[C@H]2CC[C@H]3[C@@H]4CCC5=CC(=O)C=C[C@]5(C)[C@H]4CC[C@]23C)cc(OC)c1OC,> 40,> 40,35.9,–,–,–
C[C@]12CC[C@H]3[C@@H](CCC4=CC(=O)CC[C@@]43C)[C@@H]1CC[C@@H]2C(=O)NCCNC(=O)/C=C/c1ccc(Cl)cc1,8.19,15,35.7,1.8,4.3,–
COc1cc(/C=C/C(=O)NCCNC(=O)[C@H]2CC[C@H]3[C@@H]4CCC5=CC(=O)CC[C@]5(C)[C@H]4CC[C@]23C)cc(OC)c1OC,> 40,> 40,> 40,–,–,–
C[C@]12CC[C@H]3[C@@H](CCC4=CC(=O)CC[C@@]43C)[C@@H]1CC[C@@H]2C(=O)NCCNC(=O)/C=C/c1ccccc1,10.3,9.49,27.3,1.1,2.7,–
C[C@]12CC[C@H]3[C@@H](CCC4=CC(=O)C=C[C@@]43C)[C@@H]1CC[C@@H]2C(=O)NCCNC(=O)/C=C/c1ccc([N+](=O)[O-])cc1,22.6,> 40,> 40,>1.8,>1.8,–
C[C@]12CC[C@H]3[C@@H](CCC4=CC(=O)C=C[C@@]43C)[C@@H]1CC[C@@H]2C(=O)NCCNC(=O)/C=C/c1ccccc1,5.82,12.7,26.9,2.2,4.6,–
O=C(/C=C/c1ccccc1)c1ccccc1 [CHALCONE],42.8,45.9,69.2,–,–,–
COc1ccc(/C=C/C(=O)NCCNC(=O)[C@H]2CC[C@H]3[C@@H]4CCC5=CC(=O)CC[C@]5(C)[C@H]4CC[C@]23C)cc1OC,15.2,14.7,35.1,1,2.3,–
COc1ccc(/C=C/C(=O)NCCNC(=O)[C@H]2CC[C@H]3[C@@H]4CCC5=CC(=O)C=C[C@]5(C)[C@H]4CC[C@]23C)cc1,11.5,> 40,29.6,>3.5,2.6,–
CC(C)(C)OC(=O)NCCNC(=O)[C@H]1CC[C@H]2[C@@H]3CCC4=CC(=O)CC[C@]4(C)[C@H]3CC[C@]12C,24.8,> 40,> 40,–,–,–
O=c1[nH]cc(F)c(=O)[nH]1 [FLUOROURACIL],9.89,12.7,14.5,1.3,1.5,–
COc1ccc(/C=C/C(=O)NCCNC(=O)[C@H]2CC[C@H]3[C@@H]4CCC5=CC(=O)CC[C@]5(C)[C@H]4CC[C@]23C)cc1,22.2,35,> 40,1.6,>1.8,–
COc1ccccc1/C=C/C(=O)NCCNC(=O)[C@H]1CC[C@H]2[C@@H]3CCC4=CC(=O)C=C[C@]4(C)[C@H]3CC[C@]12C,0.52,16.8,29.9,32.3,57.6,Active
C[C@]12CC[C@H]3[C@@H](CCC4=CC(=O)CC[C@@]43C)[C@@H]1CC[C@@H]2C(=O)NCCNC(=O)/C=C/c1ccc([N+](=O)[O-])cc1,12,27.8,> 40,2.3,>3.3,–
CC(C)(C)OC(=O)NCCNC(=O)[C@H]1CC[C@H]2[C@@H]3CCC4=CC(=O)C=C[C@]4(C)[C@H]3CC[C@]12C,> 40,> 40,> 40,–,–,–
C[C@]12CC[C@H]3[C@@H](CCC4=CC(=O)C=C[C@@]43C)[C@@H]1CC[C@@H]2C(=O)NCCNC(=O)/C=C/c1ccc(Cl)cc1,> 40,> 40,38.7,–,–,–
COc1ccc(/C=C/C(=O)NCCNC(=O)[C@H]2CC[C@H]3[C@@H]4CCC5=CC(=O)C=C[C@]5(C)[C@H]4CC[C@]23C)cc1OC,5.75,> 40,> 40,>7,>7,–
C[C@]12CC[C@H]3[C@@H](CCC4=CC(=O)CC[C@@]43C)[C@@H]1CC[C@@H]2C(=O)NCCNC(=O)/C=C/c1ccc(C(F)(F)F)cc1,9.21,34.2,> 40,3.7,>4.3,–
C[C@]12CC[C@H]3[C@@H](CCC4=CC(=O)CC[C@@]43C)[C@@H]1CC[C@@H]2C(=O)NCCNC(=O)/C=C/c1cccc([N+](=O)[O-])c1,11.2,25.4,17.7,2.3,1.6,–

# — ChEMBL document CHEMBL5241053, “Discovery of novel steroidal-chalcone hybrids with potent and selective activity against triple-negative breast cancer” (Bioorg Med Chem, 2020)
